These results are taken from US11345659B2, “Pipecolic esters for inhibition of the proteasome” (THE BOARD OF REGENTS OF THE UNIVERSY OF TEXAS SYSTEM, priority 2018, dated 2022).

The term IC50 denotes the point on the concentration scale where inhibition reaches its midpoint. A higher IC50 goes with weaker potency.

Experiment [1] concerns the target T1, latent core 20 S proteasome (Homo sapiens, UniProt P25787+P25789).
T1 construct: purified from erythrocytes; purchased Enzo Life Sciences, Inc. (Farmingdale, N.Y.); host or cells: human erythrocytes
Kind of experiment: ChT-L peptidase activity of latent 20 S core. The format is biochemical. The note with it: no tRpt5 activation. As to the method: Human housekeeping 20 S and 26 S and complexes purified from erythrocytes were purchased from Enzo Life Sciences, Inc. (Farmingdale, N.Y.). The 1 mg/ml stock 20 S proteasome was diluted to 0.2 mg/ml working solution in 50 mM Tris/HCl, pH 8 containing 20% glycerol (dilution buffer). For the 26 S proteasome stock, the dilution buffer was supplemented with 2 mM ATP, 1 mM MgCl2, and 1 mM DTT (dithiothreitol). The ChT-L peptidase activity was measured as arbitrary intensity units of fluorescence emitted by 7-amino-4-methylcoumarin (AMC) released from the canonical model peptide substrate succinyl-LeuLeuValTyr-methylcoumarin (SucLLVY-MCA; Bachem Bioscience Inc., Philadelphia, Pa.), used at concentration of 100 μM. Free AMC (Sigma-Aldrich, St. Louis, Mo.) was used as the standard. The Rpt5 C-terminal peptide was synthesized (standard solid-phase peptide chemistry) and purified to at least 98% purity by GenScript (Piscataway, N.J.). […]
The reaction was carried out in 96-well plates, in 100 μL of reaction mixture, for 1 hour at 37° C. […] The reaction rates were calculated from a linear segment of kinetic curves constructed from measurements in 1-minutes intervals (Fluoroskan Ascent plate reader; Thermo Fisher Scientific Inc., Waltham, Mass.). Reaction rates were calculated using a linear fit executed by Slope Analyzer and Enzyme Kinetics applications launched within Origin Pro 2017 (OriginLab). […]

The target of experiment [2] is T2, 20 S human housekeeping proteasome (Homo sapiens, UniProt P25787+P25789).
T2 construct: purified from erythrocytes; purchased Enzo Life Sciences, Inc. (Farmingdale, N.Y.); host or cells: human erythrocytes
Kind of experiment: ChT-L peptidase activity of 20 S proteasome activated with Rpt5 peptide. The format is biochemical. The note with it: tRpt5 added last (compound 3 before tRpt5), n=3.

Turning to `COc1cc(CCCOC(=O)[C@@H]2CCCCN2C(=O)OCc2ccccc2)cc(OC)c1OC` [Compound 3, 1-benzyl 2-(3-(3,4,5-trimethoxyphenyl)propyl) (S)-piperidine-1,2-dicarboxylate], in experiment [1], the IC50 stood at 2800 nM. Further, the “remaining ChT-L activity” value in experiment [2] was determined as 56%.
